Entries after “also recorded” stand apart in the source; their conditions may differ.
Assays:
[1] = Accelerated storage study (HPLC analysis of stored samples); type: physicochemical
Experimental: (§1) Samples of material generated by the aforementioned procedure were quarantined, stored and subjected to 2 stability studies:
(§2) Both studies employed ICH-compliant stability chambers for controlled storage, and the following HPLC method for analysis of samples:
(§3) HPLC Detector/wavelength: Photo Diode Array Detector/190-400 nm
(§4) Column: Waters SUNFIRE C18, 4.6 by 150 mm, 3.5 μm
(§5) Column/sample Temperature: 25° C./5° C.
(§6) Flow Rate/injection volume: 1.2 mL per min/10.00 μL
(§7) Sample concentration: 1 mg/mL
(§8) Diluent: Water: DCM: MeOH: ACN (10: 5: 10: 75)
(§9) Eluent: A (H2O); B (ACN); C (MeOH)
Samples were subjected to the following conditions: 25±2° C./60±2% R.H., Argon headspace. Samples were stored in ICH-compliant stability chambers, sampled at 1, 3 and 6 months, and analyzed using the described HPLC method.

[2] = Long term stability study (HPLC analysis of stored samples); type: physicochemical
Experimental: as §1, §2, §3, §4, §5, §6, §7, §8, §9
Samples were subjected to the following conditions: 5±3° C. Argon headspace, −20±5° C., Argon headspace. Samples were stored in ICH-compliant stability chambers, sampled at 1, 3, 6 and 9 months, and analyzed using the described HPLC method.

HPLC purity after accelerated storage ([1]; 25±2° C./60±2% R.H., Argon headspace, time-points 1, 3 and 6 months, initial (t=0) HPLC a/a purity >99.0% a/a): ≥ 99.0% | HPLC assay after accelerated storage ([1]; 25±2° C./60±2% R.H., Argon headspace, time-points 1, 3 and 6 months, initial (t=0) HPLC w/w assay >99.0% w/w): ≥ 99.0 % w/w | Change in purity on accelerated storage (in words) ([1]; samples of purity 99% and above, 1, 3 and 6 months at 25±2° C., relative humidity 60±2%, argon headspace): no reduction in purity | HPLC purity after long term storage ([2]; 5±3° C. Argon headspace, −20±5° C. Argon headspace, time-points 1, 3, 6 and 9 months, initial (t=0) HPLC a/a purity >99.0% a/a): ≥ 99.0% | HPLC assay after long term storage ([2]; 5±3° C. Argon headspace, −20±5° C. Argon headspace, time-points 1, 3, 6 and 9 months, initial (t=0) HPLC w/w assay >99.0% w/w): ≥ 99.0 % w/w
Compound: C=C1/C(=C\C=C2/CCC[C@]3(C)[C@@H]([C@H](C)/C=C/[C@H](C)C(C)C)CC[C@@H]23)C[C@@H](O)C[C@@H]1O [1α-hydroxyvitamin D2]
Change in purity / stability in ICH stability studies (in words) ([2]; samples of purity 99% and above, six months under argon headspace at either −20±5° C. or 5±3° C.): unexpectedly high stability; also recorded: no reduction in purity

— patent US20130023681A1, “STABILIZED DOXERCALCIFEROL AND PROCESS FOR MANUFACTURING THE SAME” (ALPHORA RESEARCH INC., priority 2010, published 2013)
